According to PubChem BioAssay (NCI):
Values joined by “and” are separate entries in the source; they are usually repeats but may differ in a detail not shown here. Equal entries are not always repeated.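 Growth conditions: 96-well plates. Treatment: test compound, 48 hours, 5 concentrations. Analysis: linear interpolation between bracketing concentrations; unreached endpoints set to highest concentration. GI50 = concentration required for 50% inhibition of growth. The concentration for full growth arrest is given as TGI.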

Experiments:
Assay in all cases: DTP human tumour cell line panel, 48 h
[1] = system: 786-0 renal
[2] = system: A549 NSCLC
[3] = system: ACHN renal
[4] = system: HL-60(TB) leukemia
[5] = system: K-562 leukemia
[6] = system: MOLT-4 leukemia
[7] = system: SN12C renal
[8] = system: U251 CNS
[9] = system: MCF7 breast
[10] = system: T-47D breast

Structure (SMILES)	TGI [1] [µM]	TGI [2]	TGI [3]	TGI [4]	TGI [5]	TGI [6]	TGI [7]	TGI [8]	GI50 [1]	GI50 [2]	GI50 [3]	GI50 [4]	GI50 [5]	GI50 [9]	TGI [9]	GI50 [6]	GI50 [7]	GI50 [10] [µM]	TGI [10] [µM]	GI50 [8]
CCC(/C(=N/NC(=O)C[N+](C)(C)C)c1ccccc1)C1OC(=O)c2ccccc21 (centres undefined)	> 100	> 100 µM	> 100 µM	> 100 µM	> 100 µM	> 100 µM	> 100 µM	> 100 µM												
O=S1(=O)CC#CC[C@@H](CO)[C@@H](CO)CC#CC1	> 100	> 100 µM	> 100 µM	> 100 µM	> 100 µM	> 100 µM	> 100 µM	> 100 µM												
COc1ccc(C2CC(=O)Nc3c2c(C)nn3-c2nc3ccccc3[nH]2)cc1OC (centres undefined)	24.8	17.8 µM	34.1 µM	12.6 µM	> 100 µM	0.27 µM	35.5 µM	19.7 µM	5.2 µM	3.82 µM	4.45 µM	3.29 µM	4.81 µM	3.78 µM	> 100 µM	0.0405 µM	5.96 µM	4.49	50.1	4.58 µM
Cc1cc(NCCCCCCCCNc2cc(C)nc3cc(N(C)C)ccc23)c2ccc(N(C)C)cc2n1	21	21.8 µM	32.7 µM	6.11 µM	28.5 µM	> 100 µM	21.5 µM	9.45 µM												
Cn1cc(-c2[nH]c3cc(NC(=O)[C@H](N)C4CCCCC4)cc4c3c2C=NNC4=O)cn1		16.9 µM and > 10 µM	8.35 µM and > 10 µM	0.775 µM and > 4.21 µM	1.78 µM and > 10 µM	0.797 µM and > 6.55 µM	13.4 µM and > 10 µM	12.9 µM and > 10 µM	0.256 µM and 0.315 µM	3.63 µM and 3.85 µM	0.419 µM and 1.06 µM	0.292 µM and 0.296 µM	0.193 µM and 0.205 µM	0.211 µM and 0.209 µM	15.8 µM and > 10 µM	0.287 µM and 0.334 µM	0.56 µM and 0.55 µM	15	31.3	0.418 µM and 0.415 µM
CCN(Cc1c(F)cccc1C(F)(F)F)c1ccc(CO)c(Cl)c1	30.9	23.1 µM	28.6 µM	36.9 µM	13 µM	37.1 µM	26.2 µM	17.5 µM	15.9 µM	5.56 µM	15 µM	15.9 µM	0.692 µM	0.156 µM	15.7 µM	16.5 µM	13 µM	< 0.0249	0.285	0.623 µM
Cc1cc(S(=O)(=O)Nc2nc3ccccc3s2)c(SCc2ccccc2)cc1Cl	32.1	31.8 µM	27.8 µM	45.4 µM	> 100 µM		28.6 µM	26.4 µM	16.9 µM	13.9 µM	14 µM	17.3 µM	15.6 µM	31 µM	> 100 µM		14.3 µM			13.6 µM
C#CCN(Cc1ccc2nc(-c3ccccc3)c(Cl)nc2c1)c1ccc(Cl)c(Cl)c1	> 100	> 100 µM	> 100 µM	> 100 µM	> 100 µM	> 100 µM	> 100 µM	> 100 µM												
C=C1C(=O)O[C@H]2[C@H]1CC/C(COC(=O)NCCc1ccc(Br)cc1)=C\CC[C@@]1(C)O[C@@H]21	2.4	6.17 µM	2.78 µM	3.97 µM	5.61 µM	4.8 µM		2.75 µM	1.04 µM	2.59 µM	1.32 µM	1.06 µM	0.535 µM	0.417 µM	1.82 µM	1.69 µM		1.38	3.72	1.4 µM
Oc1ccc(Cl)cc1N=Nc1c(O)ccc2ccccc12	> 100	> 100 µM	> 100 µM	> 100 µM	> 100 µM	> 100 µM	> 100 µM	> 100 µM												
COc1ccc(NC(=O)CC2SC(=Nc3ccc(Cl)cc3C)NC2=O)c([N+](=O)[O-])c1 (centres undefined)	> 100	> 100 µM	> 100 µM	> 100 µM	> 100 µM	> 100 µM	> 100 µM	> 100 µM												
COc1ccc(C2[C@@H](Cl)C(=O)N2c2ccc(OC)cc2)cc1 (some centres undefined)	> 100	> 100 µM	> 100 µM	> 100 µM	> 100 µM	> 100 µM	> 100 µM	> 100 µM												
Cc1ccc(C2=C(c3ccccc3)C(O)(c3ccccc3)C(c3ccccc3)=C2c2ccc(C)cc2)cc1	> 100	> 100 µM	> 100 µM		> 100 µM		> 100 µM	> 100 µM												
Nc1nc2c(nnn2C2C=C(CO)C(O)C2O)c(=O)[nH]1 (centres undefined)	> 100	> 100 µM	> 100 µM		> 100 µM	> 100 µM	> 100 µM	> 100 µM												
c1ccc(C2SCc3nc4ccccc4n32)cc1 (centres undefined)	> 100	> 100 µM	> 100 µM	46.5 µM	> 100 µM	> 100 µM	> 100 µM	> 100 µM												
O=C(Nc1c(Cl)cccc1Cl)Oc1cccc2cccnc12	> 100	40.2 µM	> 100 µM	20.6 µM	> 100 µM	28.4 µM	> 100 µM		7.4 µM	4.47 µM	3.87 µM	3.75 µM	4.52 µM	2.99 µM	> 100 µM	3.96 µM	4.61 µM	3.29	14.5	
O=C1C2Cc3ccccc3CN2C(=O)N1CN1CCCCC1 (centres undefined)	> 100	> 100 µM	> 100 µM	88.3 µM	> 100 µM	> 100 µM	> 100 µM	> 100 µM												
OCC1OC(NO)C(O)C(O)C1O (centres undefined)	> 100	> 100 µM	> 100 µM	> 100 µM	> 100 µM	> 100 µM	> 100 µM	> 100 µM												
O=C(O)[C@@H](Cc1ccccc1)NS(=O)(=O)c1ccc(-c2ccccc2)cc1	> 100	> 100 µM	> 100 µM		> 100 µM	> 100 µM	> 100 µM	> 100 µM	> 100 µM	> 100 µM	> 100 µM		> 100 µM	> 100 µM	> 100 µM	> 100 µM	> 100 µM	> 100	> 100	> 100 µM
CC1NCCC(CC(=O)O)C1CC(=O)O (centres undefined)	> 100	> 100 µM	> 100 µM	> 100 µM	> 100 µM		> 100 µM	> 100 µM							> 100 µM				> 100	
Cc1nc2cc3[nH]c4ccccc4c(=O)c3cc2s1	> 100	> 100 µM	> 100 µM	> 100 µM	> 100 µM	> 100 µM	> 100 µM	> 100 µM												

Structure (SMILES)	TGI [1] [µM]	TGI [2]	TGI [3]	TGI [4]	TGI [5]	TGI [6]	TGI [7]	TGI [8]	GI50 [1]	GI50 [2]	GI50 [3]	GI50 [4]	GI50 [5]	GI50 [9]	TGI [9]	GI50 [6]	GI50 [7]	GI50 [10] [µM]	TGI [10] [µM]	GI50 [8]
O=S(=O)(O)c1ccc([Se][Se]c2ccc(S(=O)(=O)O)cc2)cc1	> 100	> 100 µM	> 100 µM	> 100 µM	> 100 µM	> 100 µM	> 100 µM	> 100 µM												
CC1=NN(c2ccccc2)C(=O)C1N=Nc1ccc(Br)cc1C (centres undefined)	> 100	> 100 µM	> 100 µM	> 100 µM	> 100 µM	> 100 µM	> 100 µM	> 100 µM												
CCCCCCCN(CCCCCCC)C(=N)c1ccc(OC)c2ccccc12	2.95	2.82 µM	2.81 µM				2.76 µM	2.81 µM	1.31 µM	1.37 µM	1.32 µM						1.24 µM	1.56	3.33	1.39 µM
O=C1C2=C(c3ccccc31)C(c1ccc([N+](=O)[O-])cc1)NC(=S)N2 (centres undefined)	> 100	> 100 µM	> 100 µM	> 100 µM	> 100 µM	> 100 µM	> 100 µM	> 100 µM												
CC#CC#C/C=C1/C=CC2(CCCCO2)O1 (centres undefined)	> 100	> 100 µM		47.4 µM	> 100 µM	> 100 µM	> 100 µM	> 100 µM							> 100 µM				> 100	
Cc1c2cc[n+](C)cc2c(C)c2c1[nH]c1ccc(OC(C)(C)C)cc12	> 100	> 100 µM	> 100 µM	> 100 µM	> 100 µM	> 100 µM	> 100 µM	> 100 µM												
N#Cc1cc([N+](=O)[O-])ccc1NC(=O)C(=O)Nn1c(=S)[nH]c2ccccc2c1=O	> 100	> 100 µM		> 100 µM	> 100 µM		> 100 µM	> 100 µM												
O=C(NNC(=O)/C(=C/c1cccc([N+](=O)[O-])c1)NC(=O)c1ccccc1)Nc1ccc(Cl)cc1	29.1	31.4 µM	31.8 µM	30.3 µM	36.1 µM	25.2 µM	28.2 µM	28.4 µM												
O=C1/C(=C/c2ccc(C(=O)O)cc2)CNC/C1=C\c1ccc(C(=O)O)cc1	> 100	> 100 µM	> 100 µM	> 100 µM	> 100 µM	> 100 µM	> 100 µM	> 100 µM												
Cn1cc(-c2nc(-c3c[nH]c4ccccc34)cs2)c2cccnc21	49.4	> 100 µM	> 100 µM	> 72.4 µM	> 100 µM	> 60.3 µM	> 100 µM	> 53.9 µM	0.525 µM	0.608 µM	0.527 µM	0.317 µM	0.106 µM	0.325 µM	> 100 µM	0.757 µM	2.09 µM			0.432 µM
CCCCCCCCCCCCCC(=O)OCC1OC(=O)C(O)C1O (centres undefined)	> 100	> 100 µM	> 100 µM	> 100 µM	> 100 µM	> 100 µM	> 100 µM	> 100 µM												
Clc1cc2ns[s+]c2cc1Cl	> 100	> 100 µM	> 100 µM	> 87.2 µM	> 100 µM	> 100 µM	> 100 µM	> 100 µM												
CC(C)c1cccc(C(C)C)c1NC(=O)/C(Cc1nc2ccc(Cl)cc2[nH]c1=O)=N\NC(=O)C[N+](C)(C)C	> 100	> 100 µM	> 100 µM	> 100 µM	> 100 µM	> 100 µM	> 100 µM													
COc1ccc(/C=C2\CCC(C)(CN(C)C)C2=O)cc1Br (centres undefined)	34.9	> 100 µM	> 62.6 µM	85.2 µM	64.9 µM	58 µM	31.8 µM	45.1 µM							42.1 µM					
c1ccc2cc(Cn3c(-c4cccc5ccccc45)[n+](Cc4ccc5ccccc5c4)c4c5ccccc5c5ccccc5c43)ccc2c1	1.7			0.585 µM	> 100 µM	2.09 µM		1.42 µM	0.308 µM			0.142 µM	0.224 µM	0.244 µM	1.2 µM	0.385 µM		0.269	1.7	0.165 µM
O=S1c2ccccc2N=C(c2cccs2)CC1c1ccccc1O (centres undefined)	> 100	> 100 µM	> 100 µM	> 100 µM	> 100 µM	> 100 µM	> 100 µM													
CN1C(=O)CC(CC(=O)C2CCCCC2=O)CC1=O (centres undefined)	> 100	> 100 µM	> 100 µM	> 100 µM	> 100 µM	> 100 µM	> 100 µM	> 100 µM												
C/C(COc1ccccc1)=N\NC(N)=S	> 100	> 100 µM	> 100 µM	> 100 µM	> 100 µM	> 100 µM	> 100 µM	> 100 µM												
CN(C)c1ccc(/C=C(\C#N)C(=O)c2ccccc2)cc1Br	> 100	> 100 µM	> 100 µM	57.6 µM	> 100 µM	> 100 µM	> 100 µM	> 100 µM												
CCn1c(C)nc([N+](=O)[O-])c1Sc1ncc[nH]1	> 100	> 100 µM	> 100 µM		> 100 µM	76.8 µM	> 100 µM	> 100 µM												
CCOC1=C2N=C(C(CC)c3ccc(F)cc3)N=C2C(=O)c2ccccc21 (centres undefined)	> 100	> 85.8 µM	> 81.6 µM	> 73.7 µM	> 100 µM	> 86.2 µM	> 66.7 µM	53.5 µM												
